According to article PMC9181924, “Antiproliferative and Proapoptotic Effects of Phenanthrene Derivatives Isolated from Bletilla striata on A549 Lung Cancer Cells” (Molecules, 2022):
Several values for one entry are separate records, joined by “and”; a condition that tells them apart may be missing. Equal values may be shown once. Read-outs that look alike come from different tables or passages of the source.

Legend:
A549 cells [1] = experiment: MTT cytotoxicity assay on A549 cells; type: cell-based, human; details: mean ± SD, n = 3, read-out: IC50, cytotoxicity against A549 cells
Text: (§1) The purity of the tested compounds was more than 98%. The cytotoxic effects of isolated phenanthrenes on A549 and BEAS-2B cells were examined by MTT experiments as described in our previous report.

A549 cells [2] = experiment: EdU proliferation experiment; type: cell-based, human; details: 48 h, control 100%
Experimental: The cells were digested by trypsin and cultivated in 96-well plates (3.5 × 10^3 cells per well) for 24 h. They were incubated with compound 1 (3.13, 6.25, and 12.5 μM) for 48 h. Next, prepared EdU-labeling solution (10 µM) was used to stain the cells in an incubator at 37 °C for 2 h. The cells were fixed for 15 min with 4% cold paraformaldehyde. After that, Triton X-100 (0.3%) and Click-iT reaction cocktail were successively used to handle cells. Finally, DAPI staining was applied to the cells to counterstain them. A Leica DMI3000B inverted fluorescence microscope (Leica, Wetzlar, Germany) was used to capture the fluorescent images. In addition, to count the cells, ImageJ software (version 1.8.0) (National Institutes of Health, Bethesda, MD, USA) was used. EdU positive cells (%) = (green EdU-stained cells/blue DAPI-stained cells) × 100.

Akt = experiment: Western blot, Akt phosphorylation in A549 cells; type: cell-based, human; details: A549, 3.13, 6.25, and 12.5 µM, 48 h; p < 0.05 at 3.13 μM, p < 0.01 at 6.25 and 12.5 μM vs control
Experimental: (§2) SDS–PAGE and PVDF membranes were used to separate and transfer the protein, respectively. […] The membranes were washed with TBST and incubated with an HRP-conjugated secondary antibody for 1 h at 37 °C. Finally, the protein bands were detected with a Tanon 5200 chemiluminescent imaging system (Tanon, Shanghai, China).

A549 cells [3] = experiment: Apoptosis by flow cytometry (Annexin V/PI); type: cell-based, human; details: 48-h treatment, control 1.21 ± 0.37%
Experimental: Quadrants 2 (Annexin V+/PI+) and 3 (Annexin V+/PI−) pointed to the percentage of apoptotic cells. As for the control group, the apoptosis rate was only 1.21 ± 0.37%. […] The data disclosed that compound 1 greatly promoted the apoptosis of A549 cells, especially in the high-concentration group (12.5 µM).
The A549 cells were treated with compound 1 (3.13, 6.25, and 12.5 μM), and the cell apoptosis was detected by flow cytometry assay as described in our previous report.

Bax = experiment: Western blot, Bax expression in A549 cells; type: cell-based, human; details: A549, 6.25 and 12.5 μM, 48 h; p < 0.01 vs control
Experimental: as §2

A549 cells [4] = experiment: Cell cycle analysis by flow cytometry; type: cell-based, human; details: 48 h; for percentage of G0/G1 phase cells / percentage of S phase cells: Figure 3C; for percentage of G2/M phase cells: untreated control 7.41 ± 0.79%
Experimental: According to the manufacture’s instructions, the cells were treated with compound 1 (3.13, 6.25, and 12.5 μM) for 48 h. Then, they were cultured with 500 μL staining solution (RNase A:PI = 1:9) for 1 h at room temperature without light after fixation with 70% pre-chilled ethanol for 2 h. The DNA content was instantly detected with a BD FACSCanto II flow cytometer (BD Biosciences, Franklin Lakes, NJ, USA).

MEK1/2 = experiment: Western blot, MEK1/2 phosphorylation in A549 cells; type: cell-based, human; details: A549, 3.13, 6.25, and 12.5 μM, 48 h; p < 0.01 vs control
Experimental: as §2

[5] = MTT cytotoxicity assay on BEAS-2B cells; type: cell-based; details: BEAS-2B cells (normal human lung cells), BEAS-2B normal human lung cells, read-out: IC50, cytotoxic effect on BEAS-2B cells
Text: as §1

A549 cells [6] = experiment: Transwell migration assay; type: cell-based, human; details: 24 h, control 100%
Experimental: The migratory effect of compound 1 (3.13, 6.25, and 12.5 μM) on A549 cells was further detected by using transwell chambers. Briefly, the cells treated with compound 1 were placed into the upper wells, while the medium with 10% FBS was added to the bottom wells. After a 24-h incubation, non-migrated cells were cleaned up, and the migrated cells were fixed for 30 min with 4% paraformaldehyde and dyed by 0.1% crystal violet. The images and the cell numbers were obtained by the Leica microscope and ImageJ, respectively.

Bcl-2 = experiment: Western blot, Bcl-2 expression in A549 cells; type: cell-based, human; details: A549, 3.13, 6.25, and 12.5 μM, 48 h; p < 0.01 vs control
Experimental: as §2

A549 cells [7] = experiment: Wound healing assay; type: cell-based, human; details: 24 h, control 56.46 ± 4.46%
Experimental: Cells were placed in 6-well plates for the wound healing test. The scratches were formed using a sterile 200-µL pipette tip when the cells treated with compound 1 (3.13, 6.25, and 12.5 μM) had grown to 90% confluence. After a 24-h incubation, the images were obtained with the Leica microscope and the scratch area was calculated with the ImageJ.

ERK1/2 = experiment: Western blot, ERK1/2 phosphorylation in A549 cells; type: cell-based, human; details: A549, 3.13, 6.25, and 12.5 µM, 48 h; p < 0.05 at 3.13 μM, p < 0.01 at 6.25 and 12.5 μM vs control
Experimental: as §2

Structure (SMILES): COc1cc(O)c(O)c2c1-c1ccc(O)cc1CC2 [Compound 10, 4-methoxy-9,10-dihydrophenanthrene-1,2,7-triol]
- IC50 (A549 cells [1]; Homo sapiens, A549, A549 cells): 16.3 ± 2.22 µM

Structure (SMILES): COc1cc(O)c(Cc2ccc(O)cc2)c2c1-c1ccc(Oc3c(O)cc(OC)c4c3CCc3cc(O)ccc3-4)cc1CC2 [Compound 8, blestanol C]
- IC50 (A549 cells [1]; A549 cells): 8.62 ± 0.64 µM
- IC50 (A549 cells [1]; Homo sapiens, A549, A549 cells): < 10 µM

Structure (SMILES): COc1cc(O)c(-c2c(O)cc3c(c2OC)-c2ccc(O)cc2CC3)c2c1-c1ccc(O)cc1CC2 [Compound 3, blestrianol A]
- IC50 (A549 cells [1]; Homo sapiens, A549, A549 cells): 10.5 ± 2.55 µM

Structure (SMILES): COc1cc(O)c(Cc2ccc(O)cc2)c2ccc3cc(O)ccc3c12 [Compound 17, 1-(p-hydroxybenzyl)-4-methoxyphenanthrene-2,7-diol]
- IC50 (A549 cells [1]; Homo sapiens, A549, A549 cells): 32.6 ± 2.33 µM

Structure (SMILES): COc1c(O)ccc2c1ccc1c(-c3c(O)cc(OC)c4c3ccc3cc(O)ccc34)c(O)cc(OC)c12 [Compound 5, bleformin G]
- IC50 (A549 cells [1]; Homo sapiens, A549, A549 cells): > 100 µM

Structure (SMILES): COc1ccc(Cc2c(O)cc(O)c3c2CCc2cc(OC)ccc2-3)cc1 [Compound 13, pleioanthrenin]
- IC50 (A549 cells [1]; A549 cells): 9.52 ± 0.47 µM
- IC50 (A549 cells [1]; Homo sapiens, A549, A549 cells): < 10 µM

Structure (SMILES): COc1cc2ccc3cc(O)ccc3c2c(OC)c1O [Compound 16, 3,7-dihydroxy-2,4-dimethoxyphenanthrene]
- IC50 (A549 cells [1]; Homo sapiens, A549, A549 cells): 63.8 ± 4.67 µM

Structure (SMILES): COc1cc(O)c(-c2c(O)cc(OC)c3c2ccc2cc(O)ccc23)c2ccc3cc(O)ccc3c12 [Compound 6, blestriarene C]
- IC50 (A549 cells [1]; A549 cells): 9.45 ± 0.52 µM
- IC50 (A549 cells [1]; Homo sapiens, A549, A549 cells): < 10 µM

Structure (SMILES): COc1cc(O)cc2c1-c1ccc(O)cc1CC2 [Compound 9, 2,7-dihydroxy-4-methoxy-9,10-dihydrophenanthrene]
- IC50 (A549 cells [1]; Homo sapiens, A549, A549 cells): 51.5 ± 1.87 µM

Structure (SMILES): COc1cc(O)c(-c2c(O)cc3c(c2OC)-c2ccc(O)c(Cc4ccc(O)cc4)c2CC3)c2c1-c1ccc(O)cc1CC2 [Compound 2, 4,4′-dimethoxy-8′-(p-hydroxybenzyl)-9,9′,10,10′-tetrahydro-[1,3′-biphenanthrene]-2,2′,7,7′-tetraol]
- IC50 (A549 cells [1]; A549 cells): 8.75 ± 0.61 µM
- IC50 (A549 cells [1]; Homo sapiens, A549, A549 cells): < 10 µM

Structure (SMILES): COc1cc(O)c(Cc2ccc(O)cc2)c2c1-c1cc(Cc3ccc(O)cc3)c(O)cc1CC2 [Compound 14, 1,6-bis(p-hydroxybenzyl)-4-methoxy-9,10-dihydrophenanthrene-2,7-diol]
- IC50 (A549 cells [1]; Homo sapiens, A549, A549 cells): 12 ± 0.79 µM

Structure (SMILES): COc1cc(O)cc2c1-c1ccc(O)c(-c3c(O)cc(OC)c4c3CCc3cc(O)ccc3-4)c1CC2 [Compound 1, 4,5′-dimethoxy-9,9′,10,10′-tetrahydro-[1,1′-biphenanthrene]-2,2′,7,7′-tetraol]
- percentage of EdU-positive cells (A549 cells [2]; A549, 3.13 μM): 67.66 ± 4.51%
- percentage of EdU-positive cells (A549 cells [2]; A549, 6.25 μM): 56.33 ± 4.50%
- percentage of EdU-positive cells (A549 cells [2]; A549, 12.5 μM): 34.01 ± 4.58%
- expression ratio of p-Akt/Akt (Akt): significantly suppressed
- apoptosis rate (Annexin V+/PI+ and Annexin V+/PI−) (A549 cells [3]; A549, 3.13 µM): 2.57 ± 0.53%
- apoptosis rate (Annexin V+/PI+ and Annexin V+/PI−) (A549 cells [3]; A549, 6.25 µM): 12.25 ± 2.21%
- apoptosis rate (Annexin V+/PI+ and Annexin V+/PI−) (A549 cells [3]; A549, 12.5 µM): 49.79 ± 8.54%
- Bax protein levels (Bax): increased
- percentage of G0/G1 phase cells (A549 cells [4]; A549, 3.13 μM): 76.42%
- percentage of S phase cells (A549 cells [4]; A549, 3.13 μM): 11.73%
- percentage of G2/M phase cells (A549 cells [4]; A549, 3.13 μM): 11.85 ± 1.26% and 11.85%
- percentage of G0/G1 phase cells (A549 cells [4]; A549, 6.25 μM): 70.16%
- percentage of S phase cells (A549 cells [4]; A549, 6.25 μM): 15.31%
- percentage of G2/M phase cells (A549 cells [4]; A549, 6.25 μM): 14.53 ± 1.75% and 14.53%
- percentage of G0/G1 phase cells (A549 cells [4]; A549, 12.5 μM): 50.11%
- percentage of S phase cells (A549 cells [4]; A549, 12.5 μM): 22.81%
- percentage of G2/M phase cells (A549 cells [4]; A549, 12.5 μM): 27.08 ± 2.65% and 27.08%
- expression ratio of p-MEK/MEK (MEK1/2): significantly suppressed
- IC50 [5]: 15.2 ± 1.62 µM
- migrated cell numbers (transwell) (A549 cells [6]; A549, 3.13 µM): 72.09 ± 4.65%
- migrated cell numbers (transwell) (A549 cells [6]; A549, 6.25 µM): 29.45 ± 2.92%
- migrated cell numbers (transwell) (A549 cells [6]; A549, 12.5 µM): 10.19 ± 1.25%
- IC50 (A549 cells [1]; A549 cells): 6.86 ± 0.71 µM
- IC50 (A549 cells [1]; Homo sapiens, A549, A549 cells): < 10 µM
- Bcl-2/Bax ratio (Bcl-2): reduced
- Bcl-2 protein levels (Bcl-2): significantly decreased
- migration rate (wound healing) (A549 cells [7]; A549, 3.13 µM): 31.10 ± 2.92%
- migration rate (wound healing) (A549 cells [7]; A549, 6.25 µM): 15.23 ± 1.81%
- migration rate (wound healing) (A549 cells [7]; A549, 12.5 µM): 11.01 ± 1.81%
- expression ratio of p-ERK/ERK (ERK1/2): significantly suppressed

Structure (SMILES): COc1cc(O)c(Cc2ccc(O)cc2)c2c1-c1ccc(O)cc1CC2 [Compound 12, 1-(p-hydroxybenzyl)-4-methoxy-9,10-dihydrophenanthrene-2,7-diol]
- IC50 (A549 cells [1]; Homo sapiens, A549, A549 cells): 33.3 ± 0.49 µM

Structure (SMILES): COc1cc(O)cc2c1-c1cc(-c3c(O)cc(OC)c4c3CCc3cc(O)ccc3-4)c(O)cc1CC2 [Compound 4, gymconopin C]
- IC50 (A549 cells [1]; A549 cells): 9.91 ± 0.68 µM
- IC50 (A549 cells [1]; Homo sapiens, A549, A549 cells): < 10 µM
